{"source": "patent US20160271188A1", "about": "“PROBIOTIC AND PREBIOTIC COMPOSITIONS, AND METHODS OF USE THEREOF FOR TREATMENT OF GASTROINTESTINAL DISORDERS” (Epiva Biosciences, Inc., priority 2014, published 2016)", "key": {"[1]": {"tested_on": "human peripheral blood mononuclear cells (PBMCs)", "assay": "Cytokine release by human PBMCs incubated with commensal bacteria alone or with E. faecalis (Luminex)", "assay_type": "cell-based", "conditions": "for overall anti-inflammatory cytokine profile for a Th-1-driven condition such as GVHD: alone and with EPV 8", "protocol": "An in vitro system was developed to efficiently test the inflammatory and immunomodulatory properties of different human commensal bacteria on human peripheral blood mononuclear cells (PBMCs). Experiments were carried out with 21 bacterial candidates to profile their anti-inflammatory properties against human PBMCs. The innate properties of bacteria alone on human PBMCs were tested as well as their ability to counteract the pro-inflammatory activity of Enterococcus feacalis.\nHuman PBMCs were isolated from fresh blood by density-gradient centrifugation using Ficoll (1-4). […] The results are presented in FIGS. 2-5 for all time points. […] The 24 h results are shown as a composite in FIG. 6 and with statistical analysis on individual cytokines in FIGS. 7-10. The results represent the properties of each bacterial species against human PBMCs and their ability to counteract inflammatory stimulation with E. faecalis in vitro."}, "gut microbiome [2]": {"tested_on": "gut microbiome", "conditions": "mouse, in vivo"}, "[3]": {"assay": "Normal human volunteer study of D-xylose: serum and urine pharmacokinetics", "assay_type": "in vivo", "source_text": "Blood and urine were collected at pre-specified pre- and post-ingestion time points to measure D-xylose levels and to characterize the systemic absorption profiles of D-xylose. Phoenix® WinNonLin®, Version 6.2.1, was used for PK analyses. Serum D-xylose concentrations were summarized by cohort using nominal sample times according to actual amount received using summary statistics (n, coefficient of variation [CV], mean, standard deviation [SD], median, minimum, and maximum). Evidence for the occurrence of steady-state was assessed graphically by comparing the time course of either trough or 2-hour post-ingestion serum concentrations of D-xylose as different levels of D-xylose. Accumulation was assessed by comparing the 2-hour post-first-ingestion serum levels with those observed at Week 2 (Day 15) and Week 4 (Day 28). […] Urine PK parameters for D-xylose levels included Ae(0-t) (cumulative amount of sweetener recovered in urine) and percent sweetener amount excreted over a 5-hour period."}, "[4]": {"tested_on": "healthy, adult volunteers", "conditions": "human, in vivo", "protocol": "D-xylose is a carbon source generally preferred by anaerobic bacteria. […] A parallel, double-blind, 5 cohort escalation food safety study was conducted to examine D-xylose in normal human volunteers. The study was a double-blind, single-center, parallel group study designed to evaluate the tolerability and potential microbiome changes induced by ingestion of D-xylose at 5 different amounts in healthy, adult volunteers enrolled at 1 study center in the United States (US).\nSubjects were screened for eligibility within 21 days prior to the first planned ingestion of study sweetener on Day 1 (Baseline). […]\nSubjects returned to the study center weekly on Days 8, 15, 22, and 28 for ingestion, tolerability, and compliance evaluations. Safety was evaluated on a continual basis through adverse events (AE) monitoring, clinical laboratory measurements, vital sign monitoring, physical examinations, electrocardiograms (ECGs), telephone follow-up, and electronic subject ingestion diaries. Stool was collected pre-ingestion and at pre-specified time points, and post-ingestion samples were evaluated for changes in the gut microbiome compared with Baseline for all subjects. […]\nSafety was evaluated on a continual basis through AE monitoring, clinical laboratory measurements, vital sign monitoring, physical examinations, ECGs, telephone follow-up, and electronic subject ingestion diaries. […]"}, "gut microbiome [5]": {"tested_on": "gut microbiome", "assay": "Normal human volunteer study of D-xylose: changes in the gut microbiome (stool V3-V4 16S sequencing)", "assay_type": "in vivo", "conditions": "for gut microbiome community composition: over time on study; for alpha diversity of the gut microbiome: regardless of ingestion amount"}, "[6]": {"tested_on": "healthy, adult volunteers", "assay": "Normal human volunteer study of D-xylose: CRP, serum cytokines, T-cell markers", "assay_type": "in vivo", "source_text": "Blood was collected at pre-specified pre- and post-ingestion time points to evaluate C-reactive protein (CRP), serum cytokines (tumor necrosis factor alpha [TNF-α], interleukin [IL]-2, IL-6, interferon gamma [IFN-γ], and IL-10), and T-cell markers CD3, CD4, CD8, CD25, and FOXP3. Plasma was also stored and may be tested for biomarkers and/or metabolic markers for up to 7 years.\nSummary statistics (n, mean, standard deviation, median, minimum, and maximum) were presented for serum concentrations of CRP, flow cytometry T-cell markers (CD3, CD4, CD8, CD25, and FOXP3), and cytokines (TNF-α, IL-2, IL-6, IFN-γ, and IL-10) as per their nominal time points."}, "tumors": {"tested_on": "tumors", "conditions": "oral administration; Sivan et al., Vetizou et al.; cited from earlier work"}, "microbiome of the gut": {"tested_on": "microbiome of the gut", "conditions": "mouse, in vivo", "source_text": "(§1) The trillions of organisms forming the microbiome function as an organ system interconnected throughout the body. The possibility that modification of the microbiome in a given physical location may influence the microbiome at other sites in the body (distal augmentation) was investigated. Seven week old C57Bl/6 female mice were acclimatized for 7 days prior to the start of the study by daily handling and shuffling between cages. All mice were housed at three mice per cage in individually vented cages (Thoren, Hazleton, Pa.). At day 0, baseline fresh fecal pellets, and vaginal lavages with 100 μL of sterile double-distilled water were collected and immediately frozen at −80° C. for microbiome analysis. […] Water alone is not expected to influence the microbiome and acted as a negative control. […] The impact of oral vancomycin is therefore expected to be limited to the gastrointestinal tract such that microbiome changes elsewhere in the body (e.g. vagina) would be attributable to distal augmentation. At day 6, fresh fecal pellets and vaginal lavages with 100 μL of sterile double-distilled water were collected and immediately stored at −80° C. for microbiome analysis.\n(§2) Isolation and sequencing of microbial DNA from the stool and vaginal samples was performed by DNA Genotek (Ottawa, ON, Canada). The V3-V4 region of the 16S ribosomal subunit was amplified with custom PCR primers and sequenced on an Illumina MiSeq to a minimum acceptable read depth of 25,000 sequences per sample. […] These OTU's were then assigned a curated taxonomic label based on the seven level SILVA taxonomy."}, "microbiome of the vagina": {"tested_on": "microbiome of the vagina", "conditions": "mouse, in vivo", "source_text": "as §1, §2"}, "[7]": {"conditions": "in vivo, po; cited from earlier work"}}, "note": "Entries after “also recorded” stand apart in the source; their conditions may differ.", "data": [{"compound": "B. wexlerae [EPV5]", "values": [{"measurement": "overall anti-inflammatory cytokine profile for a Th-1-driven condition such as GVHD", "setting": "[1]", "result": "suboptimal anti-inflammatory profile for GVHD; also recorded: induces a suboptimal profile for GVHD"}]}, {"compound": "O=C[C@H](O)[C@@H](O)[C@H](O)CO", "note": "[D-xylose]", "values": [{"measurement": "shifts in the gut microbiome", "setting": "gut microbiome [2]", "result": "did not cause major shifts in the gut microbiome but showed some differences at the family level"}, {"measurement": "ingested amount recovered in urine within 5 hours post-ingestion", "setting": "[3]; 1 g TID, Days 1, 15 and 28", "result": "approximately 40%"}, {"measurement": "serum D-xylose concentrations vs ingestion amount", "setting": "[3]; 1 to 15 g TID", "result": "increased linearly with increasing ingestion amounts"}, {"measurement": "accumulation ratio", "setting": "[3]; Day 15, 15 mg TID cohort", "result": "approximately 1.9 fold"}, {"measurement": "accumulation of serum D-xylose", "setting": "[3]; Day 15, 1 g to 12.5 g TID", "result": "Little to no accumulation"}, {"measurement": "accumulation ratio", "setting": "[3]; Day 28, 15 g TID", "result": 1.68}, {"measurement": "SAEs, severe AEs, deaths", "setting": "[4]", "result": "No SAEs, severe AEs, or subject deaths"}, {"measurement": "subjects who experienced at least 1 AE", "setting": "[4]; 28 days", "result": 38.9, "unit": "%"}, {"measurement": "Chao diversity index (community richness)", "setting": "gut microbiome [5]; over time", "result": "overall decrease in the Chao diversity index over time"}, {"measurement": "gut microbiome community composition", "setting": "gut microbiome [5]", "result": "no significant changes in community composition"}, {"measurement": "gut microbiome community composition", "setting": "gut microbiome [5]; listed as xylose", "result": "exerts subtle changes in the gut microbiome"}, {"measurement": "alpha diversity of the gut microbiome", "setting": "gut microbiome [5]; over time", "result": "no apparent significant impact on the intra-sample alpha diversity"}, {"measurement": "alpha diversity of the gut microbiome", "setting": "gut microbiome [5]; over time, listed as xylose", "result": "no major shifts in the microbiome alpha diversity"}, {"measurement": "serum interferon gamma over time", "setting": "[6]; 2 g and 15 g cohorts", "result": "trend for reduced levels of serum interferon gamma over time"}, {"measurement": "subjects with normal serum CRP at Baseline and at least 1 post-ingestion CRP value >2.9 mg/L", "setting": "[6]; all cohorts", "result": 8.3, "unit": "%"}, {"measurement": "total T-cells and T-cell subsets over time", "setting": "[6]; any ingestion amount", "result": "No consistent or clinically meaningful changes over time"}, {"measurement": "serum cytokines (TNF-α, IL-2, IL-6, IFN-γ, IL-10) over time", "setting": "[6]; most data points BLQ, any ingestion amount", "result": "did not indicate any consistent or clinically meaningful changes over time"}]}, {"compound": "Bifidobacterium", "values": [{"measurement": "responsiveness to checkpoint inhibitor therapy in cancer", "setting": "tumors", "result": "increases the responsiveness to checkpoint inhibitor therapy"}]}, {"compound": "CN[C@H](CC(C)C)C(=O)N[C@H]1C(=O)N[C@@H](CC(N)=O)C(=O)N[C@H]2C(=O)N[C@H]3C(=O)N[C@H](C(=O)N[C@H](C(=O)O)c4cc(O)cc(O)c4-c4cc3ccc4O)[C@H](O)c3ccc(c(Cl)c3)Oc3cc2cc(c3O[C@@H]2O[C@H](CO)[C@@H](O)[C@H](O)[C@H]2O[C@H]2C[C@](C)(N)[C@H](O)[C@H](C)O2)Oc2ccc(cc2Cl)[C@H]1O", "note": "[vancomycin]", "values": [{"measurement": "impact on the microbiome of the gut (PCA at family level)", "setting": "microbiome of the gut", "result": "strong impact on the microbiome of the gut"}, {"measurement": "median abundance of bacterial species in vaginal samples at day 6 that were not present at day 0", "setting": "microbiome of the vagina", "result": "approximately 0.00002%"}, {"measurement": "day 0 to day 6 pattern in vaginal samples (PCA)", "setting": "microbiome of the vagina; po", "result": "showed an overall difference"}, {"measurement": "absorption from the gut", "setting": "[7]", "result": "poorly absorbed from the gut"}]}, {"compound": "Bacteroides", "values": [{"measurement": "responsiveness to checkpoint inhibitor therapy in cancer", "setting": "tumors", "result": "increases the responsiveness to checkpoint inhibitor therapy"}]}, {"compound": "B. luti [EPV3]", "values": [{"measurement": "intrinsic inflammatory activity (induction of pro-inflammatory cytokines) compared to EPV 8", "setting": "[1]", "result": "relatively low intrinsic inflammatory activity compared to EPV 8"}, {"measurement": "overall anti-inflammatory cytokine profile for a Th-1-driven condition such as GVHD", "setting": "[1]", "result": "significantly desirable anti-inflammatory profile; also recorded: capable of inducing a desirable anti-inflammatory cytokine profile"}, {"measurement": "ability to reduce induction of pro-inflammatory cytokines by EPV 8 (IL-6, MCP-1, IL-12p70, IFNγ)", "setting": "[1]; combination with EPV 8", "result": "able to reduce the induction of pro-inflammatory cytokines by EPV 8"}]}, {"compound": "Lactobacillus", "values": [{"measurement": "responsiveness to checkpoint inhibitor therapy in cancer", "setting": "tumors", "result": "not"}]}]}
